PubChem BioAssay AID540314 (Broad Institute, 2011)
Results filed as inconclusive are left out. Active and inactive are the calls of the source.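 Rule for the calls: active = compounds whose fitted half-maximal potency is at most ten times their top valid tested dose, reducing viability; inconclusive = flat curve with 30 to 70% viability loss, or poor fit; inactive = the rest.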

Assays:
[1] = system: BJeHLT fibroblasts viability, Alamar Blue fluorescence, 48 h; assay: viability loss in BJeHLT fibroblasts, dose response, counter-screen for Ras selective lethality project, cell-based, plate reader, dry powder, set 4 (AID 540314)
[2] = as above; settings: BJeHLT fibroblasts viability, Alamar Blue fluorescence, 48 h; at 48 µM (top of the series)

| Compound | AC50 [1] [µM] | activity change, negative = less viable [2] |
| --- | --- | --- |
| Cc1onc(C(=O)N2CCN(C(c3ccc(F)cc3)c3ccc(F)cc3)CC2)c1[N+](=O)[O-] | 2.12 | – |
| Cc1onc(C(=O)N2CCN(C(c3ccc(Cl)cc3)c3ccc(Cl)cc3)CC2)c1[N+](=O)[O-] | 0.844 | – |
| COc1ccc(C(c2ccc(OC)cc2)N2CCN(C(=O)c3ccc([N+](=O)[O-])o3)CC2)cc1 | 6.87 | – |
| O=C(NCCNC(c1ccccc1)c1ccccc1)c1ccc([N+](=O)[O-])o1 | 4.66 | – |
| COC(=O)c1ccc([C@@H]2c3[nH]c4ccccc4c3C[C@@H](C(=O)OC)N2C(=O)CCl)cc1 | 1.57 | – |
| Cc1onc(C(=O)N2CCN(Cc3ccccc3)CC2)c1[N+](=O)[O-] | – | 8.05% (inactive) |
| Cc1onc(C(=O)N2CCN(C(c3ccccc3)c3ccc(Cl)cc3)CC2)c1[N+](=O)[O-] (stereo not given) | 2.04 | – |
| CCOc1ccccc1-n1c(C(C)N2CCN(C(=O)COc3ccc(Cl)cc3)CC2)nc2ccccc2c1=O (stereo not given) | 4.19 | – |
| O=C(c1ccc([N+](=O)[O-])o1)N1CCN(C(c2ccc(F)cc2)c2ccc(F)cc2)CC1 | 14.8 | – |
| Cc1onc(C(=O)N2CCN(C(c3ccccc3)c3ccccc3)CC2)c1[N+](=O)[O-] | 7.25 | – |
